{
  "source": "patent US20120252773A1",
  "about": "“Method and composition for inhibiting cell proliferation and angiogenesis” (priority 2005, published 2012)",
  "key": {"[1]": {"test_system": "A549 human non-small cell lung cancer cells", "experiment": "Cell growth inhibition, MTT, 7 days, A549", "type": "cell-based", "conditions": "A549, 7 days, Example 15", "protocol": "(§1) To measure the inhibitory activity of (2) on growth of HDMVEC cells (Clonetics, San Diego, Calif.), 2,000 cells were seeded in each well of a 96-well plate in […] of EGM medium (Clonetics) supplemented with 5% fetal bovine serum (Sigma). The plate was incubated at 37° C. in a tissue culture incubator for 24 h, and then various concentrations of (2) dissolved in EGM were added to each well in 5-10 μl aliquots. Four wells were used for each concentration. Medium in each well was renewed with fresh test solution added every other day. After 7 days of culture, the viable cells were measured using reagents from an MTT kit (Promega Corporation, Madison, Wis.), using instructions provided by the supplier. The number of viable cells in treated wells relative to those in control wells gave the percentage of inhibition.\nCompound (2) was evaluated in several different human cancer cell lines for its effects on cell growth. […]\nTo measure the inhibitory activity of test articles on growth of NSCLC cells, 2,000 cells were seeded in each well of a 96-well plate in […] of RPMI-1640 medium supplemented with 2 mM glutamine and 10% fetal bovine serum (growth medium). […] After 7 days of culture, the viable cells were measured using reagents from MTT kit (Promega Corporation, Madison, Wis.), using instructions provided by the supplier. […]"}, "[2]": {"test_system": "mouse transformed fibroblast cell line (L929)", "experiment": "Cell growth inhibition, MTT, 7 days, L929", "type": "cell-based", "conditions": "L929, 7 days, compared with human cancer cell lines", "protocol": "as §1\nCompound (2) was evaluated in several different human cancer cell lines for its effects on cell growth. The human cancer cell lines used (ATCC) were A549 lung cancer cells, U-87 brain cancer cells, SKOV-3 ovarian cancer cells, PC-3 non-androgen dependent prostate cancer cells, and MDA MB-231 estrogen-independent breast cancer cells. Human umbilical vein endothelial cells (HUVEC) and a mouse transformed fibroblast cell line (L929) were also included in the assay for comparison. […]"}, "[3]": {"test_system": "PC-3 human prostate tumors", "experiment": "PC-3 xenograft nude mouse model, tumor growth", "type": "in vivo", "protocol": "Compound (2) was evaluated using the xenograft nude Balb-C athymic mouse model for its in vivo anti-tumor activity against PC-3 human prostate tumors. The mice were obtained from Taconic Laboratories. The experiment was conducted by subcutaneously implanting PC-3 cells to the right flanks of BALB-C athymic nude mice (Taconic Laboratories) followed by observing tumor growth daily. There were 8 mice in the control and each treatment groups. When tumor volumes reached 70-100 mm^3, drug delivery was initiated at 3 dose levels of (2). The compound was delivered orally as follows: 0 mg/kg to the control group, 10 mg/kg to one treatment group, and 30 mg/kg to a second treatment group, each once daily for 28 days; and 100 mg/kg to a third treatment group, once weekly. Tumor volumes were measured twice weekly and body weights once weekly.\nMice were treated as in Example 7, except that one group received no oral (2), but instead received 7.5 mg/kg i.p. paclitaxel (Sigma) when the tumors reached 70-100 mm^3, while another group received both (2) orally at 10 mg/kg and paclitaxel i.p. at 7.5 mg/kg."}, "Stat-3 (pStat-3, Tyr705)": {"test_system": "Stat-3 (pStat-3, Tyr705)", "experiment": "Stat-3 phosphorylation, Western blot, DU-145 cells", "type": "cell-based, human", "conditions": "DU-145, 0.5 μM, 48 h", "protocol": "Stat-3 is, therefore, an important molecular target for developing anti-cancer agents. DU-145 cells were treated with 0 (control), 100, or 500 nM of (2) for 48 hours. Western blot analysis was performed using total and phospho-Stat-3 (pStat-3, Tyr705) antibodies from Cell Signal Technology, Inc."}, "[4]": {"target": "T1, Human recombinant estrogen receptor-β (ER-β) (Homo sapiens, UniProt Q92731)", "T1 construct": "purchased PanVera Corporation (Madison, Wis.)", "T1 sequence (Q92731 whole entry)": "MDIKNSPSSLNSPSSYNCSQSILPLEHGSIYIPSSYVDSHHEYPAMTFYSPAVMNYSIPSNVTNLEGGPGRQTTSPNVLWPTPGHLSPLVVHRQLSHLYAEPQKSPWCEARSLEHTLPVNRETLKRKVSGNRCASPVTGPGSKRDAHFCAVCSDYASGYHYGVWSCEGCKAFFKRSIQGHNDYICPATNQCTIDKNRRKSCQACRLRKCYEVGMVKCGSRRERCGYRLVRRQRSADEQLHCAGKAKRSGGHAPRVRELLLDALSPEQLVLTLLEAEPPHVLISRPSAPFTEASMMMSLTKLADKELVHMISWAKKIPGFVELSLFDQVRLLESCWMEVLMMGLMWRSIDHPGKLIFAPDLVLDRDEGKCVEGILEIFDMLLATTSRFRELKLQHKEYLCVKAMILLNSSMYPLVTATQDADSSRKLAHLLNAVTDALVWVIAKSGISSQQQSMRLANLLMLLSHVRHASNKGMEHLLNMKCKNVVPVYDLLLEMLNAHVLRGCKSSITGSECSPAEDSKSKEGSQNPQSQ", "experiment": "Estrogen receptor binding assay, 3H-17β-estradiol displacement, ER-β", "conditions": "4° C. overnight", "protocol": "(§2) Human recombinant estrogen receptor-α (ER-α) and estrogen receptor-β (ER-β) were obtained from PanVera Corporation (Madison, Wis.) to conduct the binding assay. To measure the binding affinity of (2), various concentrations of (2) or 17β-estradiol were incubated with either ER-α or ER-β receptor in the presence of a fixed amount of ^3H-17β-estradiol at 4° C. overnight. At the end of the incubation, the free- and bound-3H-estradiol were separated following the instructions provided by the manufacturer using hydroxylapatite."}, "[5]": {"target": "T2, Human recombinant estrogen receptor-α (ER-α) (Homo sapiens, UniProt P03372)", "T2 construct": "purchased PanVera Corporation (Madison, Wis.)", "T2 sequence (P03372 1-595)": "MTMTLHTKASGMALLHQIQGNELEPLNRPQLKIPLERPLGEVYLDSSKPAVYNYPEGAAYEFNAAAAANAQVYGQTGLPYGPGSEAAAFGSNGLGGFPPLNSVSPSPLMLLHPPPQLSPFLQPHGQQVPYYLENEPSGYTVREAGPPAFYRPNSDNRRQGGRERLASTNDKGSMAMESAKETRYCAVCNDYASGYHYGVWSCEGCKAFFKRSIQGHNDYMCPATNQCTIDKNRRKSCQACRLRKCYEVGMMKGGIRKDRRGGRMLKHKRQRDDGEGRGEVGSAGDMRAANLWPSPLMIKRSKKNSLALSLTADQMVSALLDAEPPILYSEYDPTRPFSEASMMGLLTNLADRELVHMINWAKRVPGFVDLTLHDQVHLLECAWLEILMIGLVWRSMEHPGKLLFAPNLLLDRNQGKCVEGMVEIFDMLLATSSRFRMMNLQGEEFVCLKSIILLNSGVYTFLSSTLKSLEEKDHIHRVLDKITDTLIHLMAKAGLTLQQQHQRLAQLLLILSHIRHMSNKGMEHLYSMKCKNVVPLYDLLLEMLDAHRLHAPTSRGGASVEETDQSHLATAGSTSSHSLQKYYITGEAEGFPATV", "experiment": "Estrogen receptor binding assay, 3H-17β-estradiol displacement, ER-α", "conditions": "4° C. overnight", "protocol": "as §2"}},
  "data": [
    {"smiles": "C[C@@H]1Cc2cc(O)ccc2C2CCC3(C)/C(=C/COCCN(C)C)CCC3C21", "note": "(stereo partly drawn) [Compound (2), (E)-3-Hydroxy-7α-methyl-21-[(2-dimethylamino)ethoxy]-19-norpregna-1,3,5(10),17(20)-tetraene]", "values": [
      {"measurement": "growth of NSCLC cells", "setting": "[1]", "result": "inhibited the growth of NSCLC cells in a dose-response manner"},
      {"measurement": "inhibitory activity compared with Cisplatin tested in parallel", "setting": "[1]", "result": "much more potent than that of Cisplatin"},
      {"measurement": "effect on growth of L929 mouse fibroblast cells", "setting": "[2]", "result": "much less"},
      {"measurement": "tumor growth rate", "setting": "[3]; 10 mg/kg oral once daily for 28 days", "result": "markedly decreased growth rates"},
      {"measurement": "reduction of microvascularization compared to control group", "setting": "[3]; 30 mg/kg oral", "result": "about 50%"},
      {"measurement": "tumor growth rate", "setting": "[3]; 30 mg/kg oral once daily for 28 days", "result": "markedly decreased growth rates"},
      {"measurement": "tumor growth rate", "setting": "[3]; 100 mg/kg oral once weekly", "result": "markedly decreased growth rates"},
      {"measurement": "reduction of tyrosine phosphorylation of Stat-3", "setting": "Stat-3 (pStat-3, Tyr705)", "result": 52, "unit": "%"},
      {"measurement": "binding affinity (relative to non-radiolabeled estradiol, 50% displacement of 3H-estradiol)", "setting": "[4]", "result": 64},
      {"measurement": "binding affinity (relative to non-radiolabeled estradiol, 50% displacement of 3H-estradiol)", "setting": "[5]", "result": 3}
    ]}
  ]
}
